Experiments:
[1] = tested on: CDK8 (phosphorylation of STAT1 at serine 727 in A549 cells); assay: Cell based Phospho-STAT1 assay (IFNγ-stimulated A549 cells, AlphaLISA); conditions: Homo sapiens, A549, A549 cells, phospho-STAT1 after IFNγ stimulation
In short: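 A549 cells given serial compound dilutions for 1 h at 37 °C, then stimulated with IFNγ at 10 ng/mL final for 30 min. Lysate STAT1 Ser727 phosphorylation measured by AlphaLISA; % inhibition vs stimulated/unstimulated DMSO controls, IC50 by nonlinear regression.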

[2] = tested on: CDK8 (TCF/LEF luciferase reporter in HCT116 cells); assay: Cell based TCF/LEF reporter assay (HCT116+TCF/LEF luciferase); conditions: Homo sapiens, HCT-116, 24 h
In short: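 HCT116 cells stably carrying a TCF/LEF-luciferase reporter (endogenous mutant β-catenin), seeded overnight, then exposed to serial compound dilutions for 24 h at 37 °C. Luminescence normalized to CellTiter-Fluor viability signal. % inhibition relative to DMSO and 10 uM CCT251545 controls, with IC50 from nonlinear regression.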

| IC50 [1] [nM] | IC50 [2] [nM] | Compound |
| --- | --- | --- |
| 0.1 to 100 | 0.1 to 100 | CCCS(=O)(=O)Nc1ccc2cc(-c3cnn4ccnc(C5=CCC(C#N)CC5)c34)ccc2c1 (centres unmarked) [Compound P-0060, N-(6-(4-(4-cyanocyclohex-1-en-1-yl)pyrazolo[1,5-a]pyrazin-3-yl)naphthalen-2-yl)propane-1-sulfonamide] |
| 0.1 to 100 | 0.1 to 100 | Cn1ncc2cc(-c3cnn4ccnc(C5=CCC(C#N)CC5)c34)ccc21 (centres unmarked) [Compound P-0324, 4-(3-(1-methyl-1H-indazol-5-yl)pyrazolo[1,5-a]pyrazin-4-yl)cyclohex-3-ene-1-carbonitrile] |
| 0.1 to 100 | 0.1 to 100 | Cn1cc(C#Cc2cnc3cccc(N4CCC5(CC4)CC(=O)NC5=O)n23)cn1 [Compound P-0238, 8-(3-((1-methyl-1H-pyrazol-4-yl)ethynyl)imidazo[1,2-a]pyridin-5-yl)-2,8-diazaspiro[4.5]decane-1,3-dione] |
| 0.1 to 100 | 0.1 to 100 | N#CC1CC=C(c2nccn3ncc(-c4cc5ccccc5s4)c23)CC1 (centres unmarked) [Compound P-0073, 4-(3-(benzo[b]thiophen-2-yl)pyrazolo[1,5-a]pyrazin-4-yl)cyclohex-3-ene-1-carbonitrile] |
| 0.1 to 100 | 0.1 to 100 | N#CC1CCN(c2cccn3ncc(-c4ccc(-c5cnn(C(F)F)c5)cc4)c23)CC1 [Compound P-0415, 1-(3-(4-(1-(difluoromethyl)-1H-pyrazol-4-yl)phenyl)pyrazolo[1,5-a]pyridin-4-yl)piperidine-4-carbonitrile] |
| 0.1 to 100 | 0.1 to 100 | Cc1noc(-c2ccc(-c3cnn4cccc(N5CCC(C#N)CC5)c34)cc2)n1 [Compound P-0366, 1-(3-(4-(3-methyl-1,2,4-oxadiazol-5-yl)phenyl)pyrazolo[1,5-a]pyridin-4-yl)piperidine-4-carbonitrile] |
| 100 to 1000 | 100 to 1000 | COc1ccc2cc(-c3cnn4cccc(C#CC(C)(C)O)c34)ccc2n1 [Compound P-0282, 4-(3-(2-methoxyquinolin-6-yl)pyrazolo[1,5-a]pyridin-4-yl)-2-methylbut-3-yn-2-ol] |
| 0.1 to 100 | 0.1 to 100 | CC(C)(C#Cc1cccn2ncc(-c3ccc(-c4cnn(CCF)c4)cc3)c12)C(N)=O [Compound P-0466, 4-(3-(4-(1-(2-fluoroethyl)-1H-pyrazol-4-yl)phenyl)pyrazolo[1,5-a]pyridin-4-yl)-2,2-dimethylbut-3-ynamide] |
| 0.1 to 100 | 0.1 to 100 | CC(C)(C#Cc1cccn2ncc(-c3ccc(-c4cnn(CC(N)=O)c4)cc3)c12)C(N)=O [Compound P-0462, 4-(3-(4-(1-(2-amino-2-oxoethyl)-1H-pyrazol-4-yl)phenyl)pyrazolo[1,5-a]pyridin-4-yl)-2,2-dimethylbut-3-ynamide] |
| 0.1 to 100 | 0.1 to 100 | Cn1ncc2cc(-c3cnn4cccc(C5CCC(C#N)CC5)c34)ccc21 (centres unmarked) [Compound P-0337, 4-(3-(1-methyl-1H-indazol-5-yl)pyrazolo[1,5-a]pyridin-4-yl)cyclohexane-1-carbonitrile] |
| 0.1 to 100 | 0.1 to 100 | CC(C)(O)Cn1cc(-c2ccc(-c3cnn4ccnc(C5CCC(C#N)CC5)c34)cc2Cl)cn1 (centres unmarked) [Compound P-0031, (1s,4s)-4-(3-(3-chloro-4-(1-(2-hydroxy-2-methylpropyl)-1H-pyrazol-4-yl)phenyl)pyrazolo[1,5-a]pyrazin-4-yl)cyclohexane-1-carbonitrile] |
| 0.1 to 100 | 0.1 to 100 | N#CCCCn1cc(-c2ccc(-c3cnn4ccnc(C5CCC(C#N)CC5)c34)cc2)cn1 (centres unmarked) [Compound P-0002, (1s,4s)-4-(3-(4-(1-(3-cyanopropyl)-1H-pyrazol-4-yl)phenyl)pyrazolo[1,5-a]pyrazin-4-yl)cyclohexane-1-carbonitrile] |
| 0.1 to 100 | 0.1 to 100 | N#CC1CC=C(c2nccn3ncc(-c4ccc(OCCCN5CCOCC5)cc4)c23)CC1 (centres unmarked) [Compound P-0130, 4-[3-[4-(3-morpholinopropoxy)phenyl]pyrazolo[1,5-a]pyrazin-4-yl]cyclohex-3-ene-1-carbonitrile] |
| 100 to 1000 | 100 to 1000 | Cn1cc(-c2ccc(-c3cnn4cccc(C5=CCC(C(=O)O)CC5)c34)cc2)cn1 (centres unmarked) [Compound P-0444, 4-(3-(4-(1-methyl-1H-pyrazol-4-yl)phenyl)pyrazolo[1,5-a]pyridin-4-yl)cyclohex-3-ene-1-carboxylic acid] |
| 0.1 to 100 | 0.1 to 100 | N#CC1CCC(c2nccn3ncc(-c4ccc(-c5cnn(CCN6CCCC6)c5)cc4)c23)CC1 (centres unmarked) [Compound P-0017, (1s,4s)-4-(3-(4-(1-(2-(pyrrolidin-1-yl)ethyl)-1H-pyrazol-4-yl)phenyl)pyrazolo[1,5-a]pyrazin-4-yl)cyclohexane-1-carbonitrile] |
| 100 to 1000 | 0.1 to 100 | Cn1cc(-c2ccc(-c3cnn4cccc(C#CC(C)(C)C(=O)O)c34)cc2)cn1 [Compound P-0297, 2,2-dimethyl-4-(3-(4-(1-methyl-1H-pyrazol-4-yl)phenyl)pyrazolo[1,5-a]pyridin-4-yl)but-3-ynoic acid] |

| IC50 [1] [nM] | IC50 [2] [nM] | Compound |
| --- | --- | --- |
| 0.1 to 100 | 0.1 to 100 | CC(C)(O)Cn1cc(-c2ccc(-c3cnn4ccnc(C5CCC(C#N)CC5)c34)c(F)c2)cn1 (centres unmarked) [Compound P-0001, (1s,4s)-4-(3-(2-fluoro-4-(1-(2-hydroxy-2-methylpropyl)-1H-pyrazol-4-yl)phenyl)pyrazolo[1,5-a]pyrazin-4-yl)cyclohexane-1-carbonitrile] |
| 0.1 to 100 | 100 to 1000 | Cn1cc(C#Cc2cnc3[nH]ccc3c2C2=CCC(C#N)CC2)cn1 (centres unmarked) [Compound P-0184, 4-[5-[2-(1-methylpyrazol-4-yl)ethynyl]-H-pyrrolo[2,3-b]pyridin-4-yl]cyclohex-3-ene-1-carbonitrile] |
| 0.1 to 100 | 0.1 to 100 | COc1ccc2cc(-c3cnc4[nH]ccc4c3N3CCC(C#N)CC3)ccc2n1 [Compound P-0221, 1-(5-(2-methoxyquinolin-6-yl)-1H-pyrrolo[2,3-b]pyridin-4-yl)piperidine-4-carbonitrile] |
| 0.1 to 100 | 0.1 to 100 | CC(C)(C#Cc1cccn2ncc(-c3ccc4c(cnn4C(F)F)c3)c12)C(N)=O [Compound P-0068, 4-(3-(1-(difluoromethyl)-1H-indazol-5-yl)pyrazolo[1,5-a]pyridin-4-yl)-2,2-dimethylbut-3-ynamide] |
| 0.1 to 100 | 0.1 to 100 | N#CC1CCC(c2cccn3ncc(-c4ccc(N5CCOCC5)nc4)c23)CC1 (centres unmarked) [Compound P-0141, 4-(3-(6-morpholinopyridin-3-yl)pyrazolo[1,5-a]pyridin-4-yl)cyclohexane-1-carbonitrile] |
| 0.1 to 100 | 0.1 to 100 | Cc1ccc2cc(-c3cnn4cccc(C5=CCC(C#N)CC5)c34)ccc2n1 (centres unmarked) [Compound P-0223, 4-(3-(2-methylquinolin-6-yl)pyrazolo[1,5-a]pyridin-4-yl)cyclohex-3-ene-1-carbonitrile] |
| 0.1 to 100 | 0.1 to 100 | Cc1nc2ccc(-c3cnn4cccc(C5=CCC(C#N)CC5)c34)cc2s1 (centres unmarked) [Compound P-0214, 4-(3-(2-methylbenzo[d]thiazol-6-yl)pyrazolo[1,5-a]pyridin-4-yl)cyclohex-3-ene-1-carbonitrile] |
| 100 to 1000 | 100 to 1000 | Cc1cc(C#N)cc(-c2ccc(-c3cnn4cccc(C#CC(C)(C)O)c34)cc2)c1 [Compound P-0235, 4′-(4-(3-hydroxy-3-methylbut-1-yn-1-yl)pyrazolo[1,5-a]pyridin-3-yl)-5-methyl-[1,1′-biphenyl]-3-carbonitrile] |
| 0.1 to 100 | 0.1 to 100 | N#CC1CC=C(c2nccn3ncc(-c4ccc(OCC5CC5)c(Cl)c4)c23)CC1 (centres unmarked) [Compound P-0038, 4-(3-(3-chloro-4-(cyclopropyl-methoxy)phenyl)pyrazolo[1,5-a]pyrazin-4-yl)cyclohex-3-ene-1-carbonitrile] |
| 0.1 to 100 | 0.1 to 100 | N#CC1CC=C(c2nccn3ncc(-c4ccc(OCCOC5CCOCC5)cc4)c23)CC1 (centres unmarked) [Compound P-0146, 4-(3-(4-(2-((tetrahydro-2H-pyran-4-yl)oxy)ethoxy)phenyl)pyrazolo[1,5-a]pyrazin-4-yl) cyclohex-3-ene-1-carbonitrile] |
| 100 to 1000 | 100 to 1000 | COc1ccc(-c2cnn3ccnc(C4=CCC(C(N)=O)CC4)c23)cn1 (centres unmarked) [Compound P-0155, 4-(3-(6-methoxypyridin-3-yl)pyrazolo[1,5-a]pyrazin-4-yl)cyclohex-3-ene-1-carboxamide] |
| 0.1 to 100 | 100 to 1000 | N#CC1CCC(c2nccn3ncc(-c4ccc(-n5ccnn5)cc4)c23)CC1 (centres unmarked) [Compound P-0211, 4-(3-(4-(1H-1,2,3-triazol-1-yl)phenyl)pyrazolo[1,5-a]pyrazin-4-yl)cyclohexane-1-carbonitrile] |
| 0.1 to 100 | 0.1 to 100 | N#CC1CC=C(c2c(-c3ccc4c(c3)NC(=O)C4)cnc3[nH]ccc23)CC1 (centres unmarked) [Compound P-0208, 4-(5-(2-oxoindolin-6-yl)-1H-pyrrolo[2,3-b]pyridin-4-yl)cyclohex-3-ene-1-carbonitrile] |
| 1000 to 10000 | 1000 to 10000 | CC(=O)C1CCN(c2cccc3ncc(C#Cc4cnn(C)c4)n23)CC1 [Compound P-0240, 1-(1-(3-((1-methyl-1H-pyrazol-4-yl)ethynyl)imidazo[1,2-a]pyridin-5-yl)piperidin-4-yl)ethan-1-one] |
| 100 to 1000 | 1000 to 10000 | CNC(=O)C(C)(C)C#Cc1cccn2ncc(-c3ccc(-c4cnn(C)c4)cc3)c12 [Compound P-0296, N,2,2-trimethyl-4-(3-(4-(1-methyl-1H-pyrazol-4-yl)phenyl)pyrazolo[1,5-a]pyridin-4-yl)but-3-ynamide] |

From patent US10703757B2, “Compounds and methods for CDK8 modulation and indications therefor” (Plexxikon Inc., priority 2016, dated 2020)
